From US4748180A, “β-carboline-3-carboxylic acid derivatives, and their use as psychotropic and anti-epileptic agents” (Schering Aktiengesellschaft, priority 1984, dated 1988)

Experiments:
benzodiazepine receptors [1] = assay: in vivo inhibition of 3H-flunitrazepam binding (forebrain membranes of injected mice); details: usually subcutaneously, 3H-flunitrazepam i.v. 15 minutes later, killed after a further 20 minutes
Experimental: The ED50 value represents the dose (mg/kg) of a test substance which causes the specific binding of flunitrazepam to benzodiazepine receptors in a living brain to be reduced to 50% of the control value. Such an in vivo test is carried out as follows:
Groups of mice are injected with the test substance of different doses and usually subcutaneously. 15 minutes later ^3 H-flunitrazepam is administered intravenously to the mice, and after a further 20 minutes, the mice are killed. Their forebrain membranes are removed and the radioactivity of these forebrain membranes is measured by scintillation counting. The ED50 value is determined from dose-response curves.

benzodiazepine receptors [2] = assay: in vitro inhibition of 3H-flunitrazepam binding (displacement test, brain membrane suspension); design: unit not given here; details: 3H-flunitrazepam 1.0 nM, 0° C., rat forebrain, pH 7.1

Compound	Inhibition of H^3flunitrazepam binding in vivo ED50 (benzodiazepine receptors [1])	Inhibition of H^3flunitrazepam binding in vitro IC50 (benzodiazepine receptors [2])
CCOCc1cccc2[nH]c3cnc(C(=O)OCC)c(COC)c3c12 [Example 1, 5-ethoxymethyl-4-methoxymethyl-β-carboline-3-carboxylic acid ethylester]	2.4 mg/kg	0.4
CCOC(=O)c1ncc2[nH]c3cccc(OC(C)C)c3c2c1COC	1.4 mg/kg	0.6
CCOC(=O)c1ncc2[nH]c3cccc(OC4CCC4)c3c2c1COC	0.5 mg/kg	0.2
